In patent US20220249504A1, “LONGEVITY SIGNATURES AND THEIR APPLICATIONS” (The Brigham and Women's Hospital, Inc., priority 2019, published 2022):
“Also recorded” adds a separate entry of the source.

Tests used:
Assay type in all cases: in vivo, mouse
longevity signatures = assay: GSEA-based association of hepatic gene expression response (RNAseq, UM-HET3 mice on compound diet for 1 month) with longevity signatures; details: UM-HET3 male mice, compound in diet for 1 month, liver RNAseq
Excerpt: Four-month old UM-HET3 mice were subjected to diets for 1 month, followed by gene expression analyses.
To validate the above approach and predictions, specific gene expression datasets were chosen from the GEO database that correspond to the effect of certain interventions considered to be health- and lifespan-extending or shortening on mouse liver (FIG. 16). […] UM-HET3 mice were then subjected to these compounds for 1 month, at which point the mice were sacrificed and subjected to gene expression analysis. Finally, the association GSEA-based test was applied to validate the findings (FIG. 16).
Second, diets were prepared for 24 of the identified compounds. These diets were administered to mice for 1 month, and ensuing gene expression changes were monitored. […]
For samples corresponding to lifespan-extending interventions, paired-end sequencing with 100 bp read length was performed on illumine HiSeq2000 platform. For samples corresponding to predicted compounds, libraries were prepared as described in (Hashimshony et al., 2016) and sequenced with 100 bp read length option on the Illumina HiSeq2500. […] Processed/cleaned reads were then mapped with STAR (version 2.5.2b) (Dobin et al., 2013) and counted via featureCounts (Liao et al., 2014). […]

C57BL/6 mice [1] = assay: Frailty index of old C57BL/6 mice on compound diet
Experimental: (§1) Briefly, 24-28 mice per intervention were used, with an approximately equal number of males and females. Mice were first assessed with regard to frailty index and gait speed, and then randomized to make sure the experimental and control groups had the same average frailty index and gait speed. Mice were then given a diet containing a compound of interest. […] Mice were monitored daily until they died. A separate cohort of old mice was assessed for frailty index and gait speed.
(§2) Briefly, 24-28 mice per intervention were used, with an approximately equal number of males and females. They were first assessed with regard to frailty index and gait speed, and then randomized to make sure the experimental and control groups had the same average frailty index and gait speed. Mice were then given a diet containing a compound of interest. […] Mice were monitored daily until they died. A separate cohort of old mice was assessed for frailty index and gait speed.

C57BI/6 mice = assay: Lifespan of old (2-year-old) C57BL/6 mice given a diet containing the compound
Experimental: as §1
Interventions were predicted in a screen based on the gene expression longevity signatures that we developed. The predicted interventions were then verified for gene expression responses in human and mouse primary cell culture (hepatocytes) and in live mice (after mice were fed for 1 month with the diets containing these interventions). The interventions that passed these tests were further assessed for the effect on lifespan of 2-year-old C57BI/6 mice. Older mice (2-year-old) were chosen for this experiment in order to mimic the effect of giving interventions to human subjects in their second half of life.
as §2

C57BL/6 mice [2] = assay: Gait speed of old C57BL/6 mice on compound diet; details: 31-month-old C57BL/6 male mice
Experimental: as §1, §2

C57BL/6 mice [3] = assay: Glucose tolerance in old C57BL/6 mice on compound diet; details: old C57BL/6 mice at the dose given in diet (AZD-8055: 23-month-old, treated 2.5 months)
Experimental: 23-month-old mice were treated for 2.5 months prior to analyses.

[4] = system: immune cells in the spleen; assay: Population of immune cells in the spleen by FACS; details: 27-month-old C57BI/6 females
Experimental: Population of immune cells in the spleen is not altered by Selumetinib (n=7 for Control, n=12 for Selumetinib). 27-month-old C57BI/6 females were used. Cells were analyzed by FACS: B-cells are CD45+CD19+, T-cells are CD45+CD3+, and myeloid cells are CD45+CD11b+.

Row | Compound | Association of hepatic gene expression response with longevity signatures (longevity signatures) | Effect on frailty index (C57BL/6 mice [1]; 31-month-old C57BL/6 male mice) | Effect on lifespan (C57BI/6 mice; C57BL/6 male mice, given late in life, ad libitum in diet (AZD-8055 20 mg/kg of food, LY294002 600 mg/kg, KU-0063794 10 mg/kg of diet)) | Effect on gait speed (C57BL/6 mice [2]) | Effect on glucose tolerance (C57BL/6 mice [3]) | Relative populations of immune cells in the spleen (B-cells, T-cells, myeloid cells) [4] | Effect on frailty index (C57BL/6 mice [1]; 31-month-old C57BL/6 female mice) | Effect on lifespan (C57BI/6 mice; C57BL/6 mice (Selumetinib: males and females combined), given late in life, ad libitum (Selumetinib 100 mg/kg of diet, Celastrol 8 mg/kg of food)) | Effect on lifespan (C57BI/6 mice; independent cohort of female C57BL/6 mice, Selumetinib 100 mg/kg of diet)
1 | C1COC(NC(C2CC2)C2CC2)=N1 [rilmenidine, N-(Dicyclopropylmethyl)-4,5-dihydro-1,3-oxazol-2-amine] | positive association with some of the signatures, including CR and GH deficiency, but not with the signatures associated with the lifespan extension effect | – | – | – | – | – | – | – | –
2 | COc1ccc(-c2ccc3c(N4CCOCC4)nc(N4C[C@@H](C)O[C@@H](C)C4)nc3n2)cc1CO [KU-0063794, rel-5-[2-[(2R,6S)-2,6-dimethyl-4-morpholinyl]-4-(4-morpholinyl)pyrido[2,3-d]pyrimidin-7-yl]-2-methoxybenzenemethanol] | consistent positive association with all lifespan-extending interventions, except for rapamycin | improved | extend lifespan | improved | No effect; also recorded: did not have a significant effect | – | – | – | –
3 | Cn1cnc2c(F)c(Nc3ccc(Br)cc3Cl)c(C(=O)NOCCO)cc21 [Selumetinib, 6-(4-Bromo-2-chloroanilino)-7-fluoro-N-(2-hydroxyethoxy)-3-methylbenzimidazole-5-carboxamide] | – | – | – | – | – | not altered; also recorded: does not alter | improves | extends lifespan | extends lifespan
